The source of these data is patent publication US20250325508A1, “MODULATORS OF PROTEASOME DYNAMICS AND/OR FUNCTION, COMPOSITIONS, METHODS, AND THERAPEUTIC USES THEREOF” (TECHNION RESEARCH & DEVELOPMENT FOUNDATION LIMITED, priority 2022, published 2025).

Molecules are shown by their SMILES.

Type in all cases: cell-based, human
One experiment has as its system Ubiquitin conjugates. Description: Ubiquitin conjugates levels (in-cell Western). As to conditions: stress, HeLa cells. The protocol: Cells were seeded in a 96-well plate at a density of 15,000 cells/well. ˜36 h later, cells were treated as described and were visualized live, using high-throughput fluorescence microscopy (IXM-C, Molecular Devices) under a controlled environment (21% O2, 5% CO2, 37° C.). Hoechst 33342 was used to stain nuclei of all cells, and SYTOX™ (Thermo) was used to stain dead cells. Data analysis was performed using the Live/Dead module of the MetaXpress software (Molecular Devices). […] For ubiquitination, the inventors used in-cell Western blotting using an anti-Ub-conj [O. Braten et al., Proc. Natl. Acad. Sci. 113, E4639-47 (2016), and a secondary fluorescent antibody. Intensities were quantified using Li-Cor imager and software (Odyssey).

A further experiment relates to 26S proteasome. Description: Proteasome subcellular localization in cultured cells (immunofluorescence, cell fractionation/Western blot). The method, then:
Cells were incubated for 20 min in fractionation buffer [20 mM HEPES pH 7.3, 10 mM KCl, 5 mM ATP, 5 mM MgCl2, and protease inhibitor cocktail (Roche)], followed by the addition of Digitonin (0.01%). They were then mixed thoroughly and centrifuged at 1,000×g for 5 min. The supernatant was collected as cytosolic fraction, and the pellet was washed with fractionation buffer supplemented with NP-40 (0.05%) and centrifuged, and the pellet (nuclei) was resuspended in fractionation buffer supplemented with sodium deoxycholate (0.5%), followed by its sonication.
Cells were washed twice with ice cold PBS and scraped into lysis buffer (50 mM Tris-HCl, pH 7.4, 130 mM NaCl, 0.5% NP-40) supplemented with freshly added protease inhibitor cocktail, 5 mM ATP, 10 mM iodoacetamide, and 5 mM N-ethyl maleimide. Protein concentration was measured by the BCA assay according to the manufacturer's instructions (Pierce, Rockford, IL). 30 μg of cellular protein were resolved via SDS-PAGE, transferred to a nitrocellulose membrane and immunoblotted with the appropriate antibody.
Cells were seeded on glass cover slips for 36 h. Following the indicated treatments, they were fixed with 4% PFA for 15 min, washed with phosphate-buffered saline (PBS) and incubated in PBS containing 10% goat serum for 1 h at room temperature, followed by 2 h incubation with the indicated primary antibody. Following extensive wash with PBS, the fixed cells were incubated with the relevant secondary antibody for 1 h, washed and mounted. Images were acquired using Zeiss LSM 700 confocal microscope (Zeiss, Oberkochen, Germany). […]
On the technique in general: A western blot detects proteins with antibodies after separation by electrophoresis.

The next experiment concerns HeLa cells. Description: Proteomic mass-spectrometric analysis of cellular protein levels. As to conditions: St.+LMB or St.+YWF vs Cont. The protocol:
2-3 mg of cell extract protein in 8 M Urea and 100 mM ammonium bicarbonate, were incubated with DTT (2.8 mM; 30 min at 60° C.), modified with iodoacetamide (8.8 mM; 30 min at room temperature in the dark), and digested (overnight at 37° C.) with modified trypsin (Promega; 1:50 enzyme-to-substrate ratio) in 2 M Urea and 25 mM ammonium bicarbonate. Additional second trypsinization was carried out for 4 h. The tryptic peptides were desalted using Sep-Pak C18 (Waters) and dried. 10 μg of protein were used for proteome analysis as described under Mass spectrometry.
Tryptic peptides were analyzed by LC-MS/MS using a Q Exactive plus mass spectrometer (Thermo Fisher Scientific) fitted with a capillary HPLC (easy nLC 1000, Thermo). […]
The mass spectrometry raw data were analyzed by the MaxQuant software (version 1.4.1.2, http://www.maxquant.org) for peak picking and quantification. […] The MaxQuant software was used for label-free semi-quantitative analysis [based on extracted ion currents (XICs) of peptides], enabling quantification from each LC/MS run for each peptide identified in any of the experiments. In samples that were SILAC-labeled, quantification was also carried out using the MaxQuant software. […]

Experiment [1] deals with proteasome. Description: Mass spectrometric analysis of proteasome sub-complexes' composition (assembly). The following applies: starvation plus substance. The protocol: Analysis of proteasome assembly and sub-complex composition was performed using the MCP20 antibody against the α6 proteasome subunit, as previously described using the MCP21 antibody against α2 [B. Fabre et al., Mol. Cell. Proteomics 12, 687-699 (2013)]. Briefly, following the indicated treatments, cell lysates were immunoprecipitated using the α6 antibody, and the precipitates were subjected to proteomic mass spectrometry. Intensities of the different proteasomal subunits were normalized according to the median of intensities measured for all 20S subunits. Ratios were calculated for each condition relative to untreated cells (control). The color scale represents Log 2 fold-change.

The test system of experiment [2] is proteasome. Description: Live imaging of proteasome activity probe Me4BodipyFL-Ahx3Leu3VS. As to conditions: addition to the starvation medium, HeLa cells. The protocol:
Live cell proteasome activity was followed as previously described [C. R. Berkers et al., Mol Pharm 4, 739-748 (2007)]. In brief, Me4BodipyFL-Ahx3Leu3VS was added to the medium to a final concentration of 1 μM. Following incubation for 15 min, the cells were visualized by a Zeiss LSM 700 confocal microscope. In vitro proteasome activity assay was carried out as previously described [O. Braten et al., Proc. Natl. Acad. Sci. 113, E4639-47 (2016)]. In brief, cellular fractions were incubated at 37° C. for 30 min with 5 μM Suc-LLVY-AMC (Succinyl-Leu-Leu-Val-Tyr-amido-4-methylcoumarin) in a reaction buffer (40 mM Tris-HCl pH 7.2, 2 mM DTT, 5 mM MgCl2, 10 mM creatine phosphate, 0.1 mg/ml creatine phosphate kinase, 5 mM ATP). Reactions were stopped by adding 1% SDS, and fluorescence was measured at 360/460 nm (ex/em).

For `CCC(=C/[C@H](C)C/C=C/C(C)=C/[C@@H](C)C(=O)[C@@H](C)[C@H](O)[C@@H](C)C/C(C)=C/C(=O)O)/C=C/[C@@H]1OC(=O)C=C[C@@H]1C` [Leptomycin B], in the experiment on Ubiquitin conjugates, the “degradation and depletion of ubiquitin adducts” value is “inhibited degradation and depletion of ubiquitin adducts”. The “proteasome translocation from the nucleus to the cytosol” value with 26S proteasome (amino acid starvation, substance added to starvation medium) is “inhibition of the translocation”. Further, the proteasome localization result in the experiment with 26S proteasome (non-stressed / well-fed cells, complete medium) was “nuclear accumulation of the proteasome”. Besides, the “accelerated degradation of cellular proteins upon starvation” value in the experiment on HeLa cells is listed as “accelerated degradation was prevented”. Also, the “effect of stress on proteasome assembly (20S and 19S sub-complexes)” value with proteasome [1] was “did not reverse the effect of stress on proteasome assembly”. Besides, in the experiment with proteasome [2], the “localization of proteasomal activity (nucleus vs cytosol)” value is listed as “preventing the shift in its dominance from the nucleus to the cytosol”.
